Assay results reported in patent US12622881B2, “Water-soluble topical ophthalmic preparation containing lutein and production method thereof” (Omisan Farmaceutici S.R.L., priority 2021, dated 2026).

Experiment: Preliminary tests: lutein added to an aqueous solution under stirring
Type: physicochemical
Conditions: even under strong and prolonged stirring
Text: As noted, lutein, being a lipophilic molecule, is insoluble in water.

CC1=C[C@H](O)CC(C)(C)C1/C=C/C(C)=C/C=C/C(C)=C/C=C/C=C(C)/C=C/C=C(C)/C=C/C1=C(C)C[C@@H](O)CC1(C)C (stereo partly drawn) [lutein, β, ε-caroten-3,3′-diol]
behaviour of lutein in aqueous solution (solubility): for the most part deposits rapidly on the bottom
